The values below come from patent publication US12485106B2, “Methods of treating fibrotic liver diseases or conditions with indeglitazar” (PLEIOGENIX INC., priority 2023, dated 2025).

One data set relates to alcoholic hepatitis. The note with it: human, in vivo; cited from earlier work.
For data set [1], the system named is mouse model of human alcoholic hepatitis. Nature of the data set: AH (NIAAA) mouse model, 8-week efficacy and safety study, alone and with prednisolone.
Text: Mice were fed with the ethanol diet for four weeks, followed by 4 weeks of intervention (8 weeks total treatment).
Livers were collected at the end-point from all mice and weighed. Liver samples were processed for histology to assess steatosis, inflammatory infiltrates and fibrosis. Briefly, liver tissue was fixed in 4% paraformaldehyde and paraffin-embedded, sectioned into 5 m thickness, and stained with hematoxylin-eosin (H&E), Oil-Red O staining, and Masson's trichrome staining.
Safety testing: The safety of indeglitazar treatment was assessed by body weight measurements and full necropsy at endpoint. Mice were terminated from the experiment by isoflurane anesthesia and blood was collected by a cardiac bleed into EDTA-treated tubes, and then centrifuged to obtain plasma to conduct clinical chemistry including full liver and renal toxicology panel. A portion of the liver was analyzed for liver triglycerides and cholesterol levels by biochemical assays. […] Hearts were weighted and fixed in 10% NBF, paraffin embedded, and sectioned into 4-μm thick slices. H&E staining was used to investigate myocardial cell hypertrophy, and ventricle diameters by microscopy.
The test system of the next data set is NASH. As to conditions: human, in vivo; cited from earlier work.
[2] abbreviates: indeglitazar 50 mg/kg, prednisolone 10 mg/kg, vs EtOH-treated vehicle control.
Setting [3] is: indeglitazar 50 mg/kg, prednisolone 10 mg/kg, vs ethanol-treated vehicle control.
Setting [4] is: indeglitazar 50 mg/kg, prednisolone 10 mg/kg, vs vehicle+EtOH.
Where [5] appears, read: indeglitazar 50 mg/kg/day, prednisolone 10 mg/kg/day, vs ethanol-treated vehicle control.

Turning to `CC(=O)CCCCn1c(=O)c2c(ncn2C)n(C)c1=O` [pentoxifylline], in the data set on alcoholic hepatitis, the “overall survival and liver damage in AH patients” value is recorded as “failed to improve overall survival or to decrease liver damage”.
Consider `C[C@]12C=CC(=O)C=C1CC[C@@H]1[C@@H]2[C@@H](O)C[C@@]2(C)[C@H]1CC[C@]2(O)C(=O)CO` [Prednisolone, prednisolone, reference compound], for which the “liver histopathology: steatosis, hepatocellular karyomegaly, and ballooning” value in data set [1] (indeglitazar 50 mg/kg, prednisolone 10 mg/kg, data not shown) was “no significant effect”. Moreover, in data set [1] (setting [2]), the “effect on liver hydroxyproline” value is reported as “no significant effect” and the “effect on plasma adiponectin” value is on record as “no significant effect”. Further, in data set [1] (setting [3]), the “effect on ALT” value is “no significant effect”, the “effect on AST” value was “no significant effect” and the “effect on total bilirubin” value is listed as “increased”. For the same molecule, in data set [1] (setting [4]), the “decrease of plasma TGFβ” value was determined as 56% and the increase of adiponectin result is recorded as “+3.4%”. Moreover, in data set [1] (setting [5]), the “effect on body weight” value is “Neither EtOH (vs no EtOH vehicle control), indeglitazar, or prednisolone had a significant effect” and the “effect on heart weight (actual)” value was “Neither EtOH (vs no EtOH vehicle control), indeglitazar, or prednisolone had a significant effect”. The “effect on overall survival” value in data set [1] (indeglitazar 50 mg/kg/day, prednisolone 10 mg/kg/day, vs ethanol-treated vehicle control, male and female mice) is recorded as “no significant effect”. For the same molecule, the “effect on liver triglycerides” value in data set [1] (prednisolone 10 mg/kg, vs vehicle+EtOH) was “no significant effect”. For the same molecule, the “increase of plasma TNF-α” value in data set [1] (prednisolone 10 mg/kg, vs vehicle+EtOH, P<0.0001) stood at 123%. In data set [1] (prednisolone 10 mg/kg, vs vehicle+EtOH, P>0.05), the “change of hydroxyproline (signed)” value is on record as −7%.
With vitamin E, the “improvement of NASH, share of people treated” value in the data set with NASH is listed as “about half”.
